Test results published in ChEMBL document CHEMBL1201862, “PubChem BioAssay data set” (2004).
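Protocol summary: plate cells (96-well), add compound at 5 concentrations, incubate 48 h, interpolate endpoints linearly. Here, GI50 denotes the concentration required for 50% inhibition of growth.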 Active and inactive are the calls of the source. No stated cut-off is given here; in the data, active = GI50 up to about 1.1 µM and inactive = higher.

Columns and labels:
Assay in all cases: NCI anticancer screen, dose series, 48 h
UO-31 = system: UO-31
HOP-62 = system: HOP-62
SF-268 = system: SF-268
Hs-578T = system: Hs-578T
SNB-19 = system: SNB-19
HL-60 = system: HL-60
HOP-92 = system: HOP-92
SNB-75 = system: SNB-75
HT-29 = system: HT-29
A498 = system: A498
TK-10 = system: TK-10
KM12 = system: KM12
BT-549 = system: BT-549
SR = system: SR
M14 = system: M14
CAKI-1 = system: CAKI-1
A549 = system: A549
HCT-116 = system: HCT-116
SK-MEL-5 = system: SK-MEL-5
SK-MEL-2 = system: SK-MEL-2

| SMILES | GI50 (UO-31) | GI50 (HOP-62) | GI50 (SF-268) | GI50 (Hs-578T) | GI50 (SNB-19) | GI50 (HL-60) | GI50 (HOP-92) | GI50 (SNB-75) | GI50 (HT-29) | GI50 (A498) | GI50 (TK-10) | GI50 (KM12) | GI50 (BT-549) | GI50 (SR) | GI50 (M14) | GI50 (CAKI-1) | GI50 (A549) | GI50 (HCT-116) | GI50 (SK-MEL-5) | GI50 (SK-MEL-2) |
| --- | --- | --- | --- | --- | --- | --- | --- | --- | --- | --- | --- | --- | --- | --- | --- | --- | --- | --- | --- | --- |
| O=C(SCc1cccc2ccccc12)c1ccc(Cl)cc1 | > 100 µM (inactive) | > 100 µM (inactive) | 80.4 µM (inactive) | 79.3 µM (inactive) | > 100 µM (inactive) | 48.5 µM (inactive) | 18.8 µM (inactive) | > 100 µM (inactive) | 54.2 µM (inactive) | > 100 µM (inactive) | > 100 µM (inactive) | > 100 µM (inactive) | > 100 µM (inactive) | 39.3 µM (inactive) | > 100 µM (inactive) | > 100 µM (inactive) | > 100 µM (inactive) | 66.1 µM (inactive) | 45.2 µM (inactive) | > 100 µM (inactive) |
| O=C(N/N=C/c1ccccc1)c1cccc2nc3ccccc3nc12 | > 100 µM (inactive) | 4.15 µM (inactive) | > 80.2 µM (inactive) | 18.7 µM (inactive) | > 73.1 µM (inactive) | > 100 µM (inactive) | > 69.2 µM (inactive) | > 100 µM (inactive) | 46.3 µM (inactive) | 77.4 µM (inactive) | > 100 µM (inactive) | 54 µM (inactive) | > 58.2 µM (inactive) | > 100 µM (inactive) | 35 µM (inactive) | > 100 µM (inactive) | 3.81 µM (inactive) | > 100 µM (inactive) | 3.19 µM (inactive) | > 100 µM (inactive) |
| O=C(O)CN1CCN2CCOCCN(CC1)CCN(CC(=O)O)CC2 | > 100 µM (inactive) | > 100 µM (inactive) | > 100 µM (inactive) | > 100 µM (inactive) | > 100 µM (inactive) | > 53.3 µM (inactive) | > 100 µM (inactive) | > 100 µM (inactive) | > 100 µM (inactive) | > 100 µM (inactive) | > 100 µM (inactive) | > 100 µM (inactive) | > 100 µM (inactive) | > 100 µM (inactive) | > 100 µM (inactive) | > 100 µM (inactive) | > 100 µM (inactive) | > 100 µM (inactive) | > 100 µM (inactive) | > 100 µM (inactive) |
| CC1OC(OC2C(Oc3cc(O)c4c(c3)O[C@H](c3ccc(O)cc3)CC4=O)OC(CO)C(O)C2O)C(O)C(O)C1O (stereo not given in full) | > 100 µM (inactive) | > 100 µM (inactive) | > 100 µM (inactive) | > 100 µM (inactive) |  | > 100 µM (inactive) | > 100 µM (inactive) | > 100 µM (inactive) | > 100 µM (inactive) | > 100 µM (inactive) | > 100 µM (inactive) | > 100 µM (inactive) | > 100 µM (inactive) | > 100 µM (inactive) | > 100 µM (inactive) | > 100 µM (inactive) | > 100 µM (inactive) | > 100 µM (inactive) | > 100 µM (inactive) | > 100 µM (inactive) |
| CC1(Br)Cc2ccccc2C1=O (stereo not given) | 6.95 µM (inactive) | 15.3 µM (inactive) | 4.68 µM (inactive) | 6.79 µM (inactive) | 33.3 µM (inactive) | 2.79 µM (inactive) | 6.49 µM (inactive) | 13 µM (inactive) | 4.36 µM (inactive) | 21.9 µM (inactive) | 16.1 µM (inactive) | 12.6 µM (inactive) | 1.7 µM (inactive) | 2.45 µM (inactive) | 3.09 µM (inactive) | 8.71 µM (inactive) | 12.5 µM (inactive) | 3.86 µM (inactive) | 5.71 µM (inactive) | 10.1 µM (inactive) |
| S=C(NN=C1NCCCN1)Nc1ccccc1 | > 100 µM (inactive) | > 100 µM (inactive) | > 100 µM (inactive) | > 100 µM (inactive) | > 100 µM (inactive) | 52.8 µM (inactive) | > 100 µM (inactive) | > 100 µM (inactive) | > 100 µM (inactive) | > 100 µM (inactive) | > 100 µM (inactive) | > 100 µM (inactive) | > 100 µM (inactive) | 63.1 µM (inactive) |  | > 100 µM (inactive) | > 100 µM (inactive) | > 100 µM (inactive) | > 100 µM (inactive) | > 100 µM (inactive) |
| CC1(C)CC[C@]2(C(=O)O)CC[C@]3(C)C(=CC[C@@H]4[C@@]5(C)CC[C@H](OC6OC(C(=O)O)C(O)C(O)C6O)C(C)(C)[C@@H]5CC[C@]43C)[C@@H]2C1 (stereo not given in full) | 19.5 µM (inactive) | 18.8 µM (inactive) | 17.3 µM (inactive) | 21.5 µM (inactive) | 22 µM (inactive) | 18.2 µM (inactive) | 13.1 µM (inactive) | 18.1 µM (inactive) | 15.1 µM (inactive) | 19.1 µM (inactive) |  | 16.5 µM (inactive) | 20.9 µM (inactive) | 15 µM (inactive) | 16.9 µM (inactive) | 18.7 µM (inactive) | 18.8 µM (inactive) | 16.8 µM (inactive) | 19.1 µM (inactive) | 15.4 µM (inactive) |
| CC(=O)Oc1cc(C)c(OC(C)=O)c2c1[C@H]1CC[C@]3(C)[C@@H](OC(C)=O)CC[C@H]3[C@@H]1CC2 | 15.3 µM (inactive) | 19.9 µM (inactive) | 23.3 µM (inactive) | 23.4 µM (inactive) | 17.8 µM (inactive) | 20 µM (inactive) | 11.5 µM (inactive) | 26.6 µM (inactive) | 17.1 µM (inactive) | 18.7 µM (inactive) | 16.1 µM (inactive) | 15.3 µM (inactive) | 15.9 µM (inactive) | 29.8 µM (inactive) | 16.3 µM (inactive) | 17.5 µM (inactive) | 17.5 µM (inactive) | 16.6 µM (inactive) | 17.5 µM (inactive) |  |
| C/C(=N/NC(=S)Nc1cccc(Cl)c1)c1ccccn1 | 0.269 µM (active) | 0.453 µM (active) | 0.142 µM (active) | 0.429 µM (active) | 2.5 µM (inactive) | < 0.0141 µM (active) | 1.18 µM (inactive) | 2.95 µM (inactive) | 0.0488 µM (active) | 1.5 µM (inactive) | 0.322 µM (active) | 0.413 µM (active) | 1.82 µM (inactive) | < 0.0185 µM (active) | 0.242 µM (active) | 0.348 µM (active) | 0.802 µM (active) | < 0.0161 µM (active) | 0.37 µM (active) | 1.2 µM (inactive) |
| CC[C@@]1(O)C(=O)OCc2c1cc1n(c2=O)Cc2c-1nc1ccccc1c2/C=N\NC(=O)C(C)N (stereo not given in full) | 0.182 µM (active) | < 0.0266 µM (active) | < 0.017 µM (active) | 11.9 µM (inactive) | 0.0233 µM (active) | < 0.028 µM (active) | 0.179 µM (active) | < 0.0298 µM (active) | 1.63 µM (inactive) | 0.111 µM (active) | > 29.3 µM (inactive) | 5.36 µM (inactive) | 0.303 µM (active) | < 0.01 µM (active) | 0.254 µM (active) | 0.071 µM (active) | 0.405 µM (active) | 0.186 µM (active) | 0.238 µM (active) | 13.1 µM (inactive) |
| Nc1nc(N)c(N=O)c(Nc2ccc(O)cc2)n1 | 41.5 µM (inactive) | 37.5 µM (inactive) | 38 µM (inactive) | 13.7 µM (inactive) | > 52 µM (inactive) | 9.53 µM (inactive) | 20.8 µM (inactive) | 18.2 µM (inactive) | 18 µM (inactive) | > 55.8 µM (inactive) | > 63 µM (inactive) | > 57.4 µM (inactive) | > 40.4 µM (inactive) | 14.8 µM (inactive) | 6.05 µM (inactive) | > 45.4 µM (inactive) | > 81.3 µM (inactive) | > 73.3 µM (inactive) | 26.5 µM (inactive) | > 62.1 µM (inactive) |
| COC(=O)C1=C(O)CCCC(CCC(C)=O)=C1 | 39.9 µM (inactive) |  | > 100 µM (inactive) | > 100 µM (inactive) | > 100 µM (inactive) | 3.99 µM (inactive) | 28.9 µM (inactive) | 76.6 µM (inactive) | 57.4 µM (inactive) | > 100 µM (inactive) | > 100 µM (inactive) | 80.2 µM (inactive) | > 100 µM (inactive) | 21.8 µM (inactive) | 47 µM (inactive) | 47.6 µM (inactive) | 95.3 µM (inactive) | 17.5 µM (inactive) | > 100 µM (inactive) | > 100 µM (inactive) |
| O=[N+]([O-])c1ccc(/C=C\c2ccc3c(c2)OCO3)c([N+](=O)[O-])c1 | 19.9 µM (inactive) | 25.1 µM (inactive) | 23 µM (inactive) | 16.8 µM (inactive) | 17.3 µM (inactive) | 17.4 µM (inactive) | 21.2 µM (inactive) | 17.7 µM (inactive) | 19.9 µM (inactive) | 19 µM (inactive) | 17.3 µM (inactive) | 15.3 µM (inactive) | 16.4 µM (inactive) | 8 µM (inactive) | 15.3 µM (inactive) | 25 µM (inactive) | 20.1 µM (inactive) | 5.53 µM (inactive) | 19 µM (inactive) | 18.3 µM (inactive) |
| COc1cc2cc3c4cc(OC)c(OC)cc4cc[n+]3c(C)c2cc1OC.O=C([O-])CS(=O)(=O)O | > 100 µM (inactive) | 42.8 µM (inactive) | 0.811 µM (active) | 20.7 µM (inactive) | 17.7 µM (inactive) | 24.2 µM (inactive) | > 100 µM (inactive) | 12.3 µM (inactive) | 53.3 µM (inactive) | 22.3 µM (inactive) | > 100 µM (inactive) | > 100 µM (inactive) | 33.5 µM (inactive) | > 100 µM (inactive) | > 100 µM (inactive) | > 100 µM (inactive) | > 100 µM (inactive) | > 100 µM (inactive) | 80 µM (inactive) | > 100 µM (inactive) |
